Laboratory results: paper PMC12186257, “Serendipitous and Systematic Chemoproteomic Discovery of MBLAC2, HINT1, and NME1‑4 Inhibitors from Histone Deacetylase-Targeting Pharmacophores” (ACS Chemical Biology, 2025)
Like-named read-outs stand apart in the source and are kept apart here. Each block holds one compound with its values, some of them ahead of it.

Assays:
[1] = tested on: HeLa cells; test: clathrin-mediated endocytosis of fluorescently labeled transferrin; format: cell-based
Procedure: To test this hypothesis, we measured clathrin-mediated endocytosis of fluorescently labeled transferrin (TF) in the presence and absence of MBLAC2 inhibitors.
CME of transferrin and confocal microscopy analyses.For transferrin uptake experiments HeLa cells were seeded on Matrigel-coated coverslips, and incubated with 0.1 % DMSO, or with 100 µM dynasore, 20 µM KV50, 2 µM KV65, or 2 µM KV79 in media containing 10% FCS at 37°C for 20 h.

[2] = biological target: casein kinase 2 (CK2) complex proteins (CSNK2A1/3, CSNK2A2, CSNK2B, EIF3J); test: Kinobead competition assay; format: binding, human; conditions: dose-dependent competition
Excerpt: The binding of KV-24 and KV-30 to the nucleotide-binding pocket raises the question of whether these compounds also target other nucleotide-binding proteins, such as kinases. To evaluate potential off-target effects, we performed Kinobead competition assays. This chemoproteomic approach is conceptually very similar to the one used here in that broad spectrum kinase inhibitors are immobilized on beads. […] PDE1C is a cAMP/cGMP nucleotide-binding protein that features two divalent metal cation cofactors. The hydroxamic acid moiety of KV-24 might chelate these metal cofactors, supporting the hypothesis that KV-24 binds the active site of PDE1C. […]
Given that local GTP production by NME1 and NME2 is essential for fueling dynamin-driven endocytosis, we investigated the effect of KV-50-mediated NME1/2 inhibition on fluorescent transferrin (TF) uptake in cells. HeLa cells were treated with KV-50 or known endocytosis inhibitors (Pitstop-2 and Dynasore), and surface-bound and internalized fluorescent TF were quantified. […]
LC-MS/MS. The different sample types were measured with different LC-MS/MS settings. MBLAC2 2-dose competition assays were measured with the Lumos1 setup, MBLAC2 9-dose competition assays were measured with the Lumos2 setup, and kinobeads assays were measured with the Eclipse setup. […]

[3] = biological target: recombinant NME1–4; test: nucleoside diphosphate kinase activity assay (ATP production from ADP and GTP, Kinase-GLO); format: biochemical; conditions: ADP (150 μM) and GTP (150 μM); range over all four enzymes; read-out: EC50 inhibition of NME1–4
Procedure: To evaluate whether KV-50 binding affects NME activity, we performed enzyme activity assays using recombinant NME1–4. The assay measured NME-catalyzed production of ATP from ADP (150 μM) and GTP (150 μM).
Nucleotide diphosphate kinase activity assays. The phosphotransfer activity of the NDPKs (NME1-4) was measured in a reaction mixture containing buffer A (20 mM Tris-HCl pH 8.0, 150 mM NaCl, and 1 mM MgCl2). All the samples were pipetted in replicates on a 384 well plate. One volume of the respective NDPK protein solution (NME1-4) was added from stock proteins (diluted in buffer a to a concentration of 300 pM) to the wells in four replicates. To these wells, one volume of the inhibitors (Six dilutions were prepared, starting with a 30 µM stock solution and then performing three-fold serial dilutions) was added and incubated at room temperature for 30 minutes. Then, one volume of the substrate mixture (300 μM GTP and 30 μM ADP) was added to the protein-inhibitor mixture-containing wells and incubated at room temperature for 30 minutes. Finally, three volumes of the Kinase-GLO reagent (Promega V6711) containing an ATP-dependent firefly luciferase were added to all the wells and five minutes later, the luminescence was measured using a plate reader. Eight different concentrations of ATP (0 - 10 μM) were used as standards for a calibration curve to calculate the amount of ATP produced by the different NDPKs.

[4] = tested on: compound-binding proteins such as HDACs, MBLAC2, ISOC1/2, ALDH2, and GATD3A; test: chemoproteomic competition assay, proteome-wide target binding profile; parameters: species or system human; conditions: dose-dependent competition
Procedure: (§1) MBLAC2 is a metalloenzyme predicted to harbor one or two Zn^2+ ions in its active site. […] In this assay, compounds of interest are incubated at increasing concentrations with a mixture of lysates of MV4–11 and SW620 cells. The compound-treated lysates are then mixed with bead-immobilized hydroxamic acid-containing compounds iA, iC, and iQ (immobilized Quisinostat), which pull down compound-binding proteins such as HDACs, MBLAC2, ISOC1/2, ALDH2, and GATD3A (Figure a) that can be identified and quantified by mass spectrometry (MS). Proteins targeted by the library compounds in a preincubation step are prevented from being pulled down by the immobilized probes, leading to a dose-dependent reduction in MS signal. Initially, 12 metal-chelating compounds were profiled at two concentrations (10 μM and 100 μM) (Figure S3).
(§2) Chemoproteomic competition assays
Sample preparation. For the MBLAC2 and HDAC inhibitor competition assay, the generation of affinity matrices, lysate generation, pulldown assay, and sample preparation were performed as described in detail in REF1. For the kinobeads assay, the generation of affinity matrices, lysate generation, pulldown assay, and sample preparation were performed as described in detail in REF2.
(§3) LC-MS/MS. The different sample types were measured with different LC-MS/MS settings. MBLAC2 2-dose competition assays were measured with the Lumos1 setup, MBLAC2 9-dose competition assays were measured with the Lumos2 setup, and kinobeads assays were measured with the Eclipse setup.
Peptides were analyzed via LC–MS/MS on a Dionex Ultimate3000 nano HPLC coupled to either one of two Orbitrap Fusion Lumos mass spectrometers, or to an Orbitrap Eclipse mass spectrometer, operated via the Thermo Scientific Xcalibur software.
In the all setups, peptides were loaded on a trap column (100 μm × 2 cm, packed in-house with Reprosil-Gold C18 ODS-3 5 μm resin, Dr. Maisch, Ammerbuch) and washed with 5 μL/min solvent A (0.1% formic acid in HPLC grade water) for 10 min. Peptides were then separated on an analytical column (75 μm × 40 cm, packed in-house with Reprosil-Gold C18 3μm resin, Dr. Maisch, Ammerbuch) using a 50 min gradient ranging from 4 to 32% solvent B (0.1% formic acid, 5% DMSO in acetonitrile) in solvent A (0.1% formic acid, 5% DMSO in HPLC grade water) at a flow rate of 300 nL/min.
The mass spectrometers were operated in data-dependent mode, automatically switching between MS1 and MS2 spectra. MS1 spectra were acquired over a mass-to-charge (m/z) range of 360–1300 m/z at a resolution of 60,000 (at m/z 200) in the Orbitrap using a maximum injection time of 50 ms and an automatic gain control (AGC) target value of 4e5.
In Lumos settings, up to 12 peptide precursors were isolated in (isolation width of 1.2 Th for Lumos1 and 1.7 for Lumos2, maximum injection time of 75 ms, AGC value of 1e5 for Lumos1 and 2e5 for Lumos2), fragmented by HCD using 30% normalized collision energy (NCE) and analyzed in the Orbitrap at a resolution of 15,000 (Lumos2) or 30,000 (Lumos1). The dynamic exclusion duration of fragmented precursor ions was set to 20 s (Lumos1) or 30 s (Lumos2). In Eclipse measurements, a cycle time of 2 s was chosen. Peptides were isolated in the quadrupole with an isolation offset of 1.2 (isolation width of 1.2 Th, maximum injection time of 54 ms, AGC target of 200%) and fragmented by […]

[5] = tested on: SW620 cells; test: SW620 confluency and metabolic activity (Alamar blue assay); format: cell-based; conditions: Homo sapiens, SW-620
[6] = biological target: T1, MBLAC2 (Homo sapiens, UniProt Q68D91); test: chemoproteomic competition assay (MV4-11/SW620 lysate, iA/iC/iQ beads, MS readout); format: binding; conditions: two-dose (1 μM and 10 μM) assay
T1 construct: incubated at increasing concentrations with a mixture of lysates of MV4–11 and SW620 cells; endogenous in cells; host or cells: mixed lysate of MV4-11 and SW620 cells
T1 sequence (Q68D91 1-279): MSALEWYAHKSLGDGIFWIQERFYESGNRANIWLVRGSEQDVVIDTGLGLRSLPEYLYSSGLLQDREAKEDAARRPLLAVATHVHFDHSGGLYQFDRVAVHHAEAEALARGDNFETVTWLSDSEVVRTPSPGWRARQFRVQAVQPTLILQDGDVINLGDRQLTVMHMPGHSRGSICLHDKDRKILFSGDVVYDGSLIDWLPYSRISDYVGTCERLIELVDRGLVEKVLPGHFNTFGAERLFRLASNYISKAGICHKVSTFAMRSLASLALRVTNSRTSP

[7] = biological target: T2, HDAC6 (Homo sapiens, UniProt Q9UBN7); test: as above; format: binding; conditions: two-dose (1 μM and 10 μM) assay
T2 construct: incubated at increasing concentrations with a mixture of lysates of MV4–11 and SW620 cells; endogenous in cells; host or cells: mixed lysate of MV4-11 and SW620 cells
T2 sequence (Q9UBN7 1-1215): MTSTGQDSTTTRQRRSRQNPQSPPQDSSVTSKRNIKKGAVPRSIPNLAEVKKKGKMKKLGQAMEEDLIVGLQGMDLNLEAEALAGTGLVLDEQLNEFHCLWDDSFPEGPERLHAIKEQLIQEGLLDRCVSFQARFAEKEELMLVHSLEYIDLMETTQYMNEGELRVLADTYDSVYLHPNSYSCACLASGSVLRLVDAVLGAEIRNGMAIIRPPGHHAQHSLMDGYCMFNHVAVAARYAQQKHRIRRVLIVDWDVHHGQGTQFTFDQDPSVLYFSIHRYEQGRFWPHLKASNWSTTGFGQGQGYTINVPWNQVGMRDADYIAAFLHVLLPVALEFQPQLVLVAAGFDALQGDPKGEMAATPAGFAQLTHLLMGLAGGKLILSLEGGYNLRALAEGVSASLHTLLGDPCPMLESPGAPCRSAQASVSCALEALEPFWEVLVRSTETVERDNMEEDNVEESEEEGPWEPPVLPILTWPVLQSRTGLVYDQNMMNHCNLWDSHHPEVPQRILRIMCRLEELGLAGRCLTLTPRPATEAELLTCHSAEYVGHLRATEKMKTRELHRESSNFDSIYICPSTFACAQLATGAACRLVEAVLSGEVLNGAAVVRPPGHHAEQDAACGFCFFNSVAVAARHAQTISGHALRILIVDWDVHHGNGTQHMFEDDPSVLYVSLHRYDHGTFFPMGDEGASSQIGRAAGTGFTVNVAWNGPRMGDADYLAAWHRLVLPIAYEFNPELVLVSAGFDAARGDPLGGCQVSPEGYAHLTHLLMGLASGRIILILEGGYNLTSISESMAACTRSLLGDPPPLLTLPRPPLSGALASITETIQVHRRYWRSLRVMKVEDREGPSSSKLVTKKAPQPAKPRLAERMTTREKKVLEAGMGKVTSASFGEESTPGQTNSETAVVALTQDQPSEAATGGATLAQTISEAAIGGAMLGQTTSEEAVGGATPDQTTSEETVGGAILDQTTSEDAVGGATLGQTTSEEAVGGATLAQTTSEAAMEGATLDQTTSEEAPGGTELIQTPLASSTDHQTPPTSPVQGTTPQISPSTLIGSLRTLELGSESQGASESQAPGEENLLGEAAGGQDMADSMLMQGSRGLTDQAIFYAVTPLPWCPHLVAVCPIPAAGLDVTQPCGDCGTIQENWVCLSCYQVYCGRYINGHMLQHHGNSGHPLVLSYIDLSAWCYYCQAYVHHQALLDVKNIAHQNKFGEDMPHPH
Procedure: as §1, with “Initially, 12 metal-chelating compounds were profiled at two concentrations (10 μM and 100 μM) (Figure S3).” left out
as §2
(§4) Sample preparation. […]
as §3
(§5) Peptides were analyzed via LC–MS/MS on a Dionex Ultimate3000 nano HPLC coupled to either one of two Orbitrap Fusion Lumos mass spectrometers, or to an Orbitrap Eclipse mass spectrometer, operated via the Thermo Scientific Xcalibur software. […]

[8] = tested on: NMEs; conditions: free nonacetylated Quisinostat; prior competition experiments; cited from earlier work
[9] = biological target: T3, ISOC1 (Homo sapiens, UniProt Q96CN7); test: chemoproteomic competition assay (MV4-11/SW620 lysate, iA/iC/iQ beads, MS readout); format: binding; conditions: nine-dose competition assay
T3 construct: incubated at increasing concentrations with a mixture of lysates of MV4–11 and SW620 cells; endogenous in cells; host or cells: mixed lysate of MV4-11 and SW620 cells
T3 sequence (Q96CN7 1-298): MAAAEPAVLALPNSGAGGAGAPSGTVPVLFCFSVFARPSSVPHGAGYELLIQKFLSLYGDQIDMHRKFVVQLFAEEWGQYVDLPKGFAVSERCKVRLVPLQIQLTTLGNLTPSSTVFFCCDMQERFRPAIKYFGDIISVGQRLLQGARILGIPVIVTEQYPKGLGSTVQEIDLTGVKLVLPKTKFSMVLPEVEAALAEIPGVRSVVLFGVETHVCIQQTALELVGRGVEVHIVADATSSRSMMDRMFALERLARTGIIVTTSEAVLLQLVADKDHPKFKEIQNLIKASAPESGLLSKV
Procedure: as §1, §2, §4, §3, §5
In Lumos settings, up to 12 peptide precursors were isolated in (isolation width of 1.2 Th for Lumos1 and 1.7 for Lumos2, maximum injection time of 75 ms, AGC value of 1e5 for Lumos1 and 2e5 for Lumos2), fragmented by HCD using 30% normalized collision energy (NCE) and analyzed in the Orbitrap at a resolution of 15,000 (Lumos2) or 30,000 (Lumos1). […] Peptides were isolated in the quadrupole with an isolation offset of 1.2 (isolation width of 1.2 Th, maximum injection time of 54 ms, AGC target of 200%) and fragmented by HCD with an NCE of 30% and analyzed in the Orbitrap at a resolution of 30,000. […]

Compound: Cl.O=C(NO)c1ccc(-c2nc3ccccc3c3[nH]c4ccccc4c23)cc1 [KV-50]
morphological changes ([1]; HeLa cells under TF assay conditions, similar in SW-620 and HEK293T): rounding and swelling of cells
ratio of internalized TF to surface-bound TF ([1]; HeLa cells, 20 µM, 20 h): reduced ratio of internalized TF to surface-bound TF
EC50 [2]: 1 to 2 µM
EC50 [3]: 2 to 5 µM
targets / off-targets bound [4]: bound to HINT1 and NME4
IC50 ([5]; SW620, Alamar blue, read-out: concentration decreasing metabolic activity by 50%): 3.6 µM
IC50 ([5]; read-out: concentration reducing SW620 cell confluency by 50%): 0.87 µM

concentration up to which no binding to MBLAC2 [6]: > 10 µM
concentration up to which no binding to HDAC6 [7]: > 10 µM
Compound: CC(=O)c1ccc(CN2c3ccccc3Sc3ccccc32)cc1 [MM-20]

Compound: Cn1cc(CNCC2CCN(c3ncc(C(=O)NO)cn3)CC2)c2ccccc21 [Quisinostat]
concentration up to which no binding to NMEs [8]: > 30 µM

EC50 [9]: 5.6 µM
Compound: COc1ccc(N(C)c2nc(C)nc3ccccc23)cc1OCCCC(=O)NO [SKLB-23bb]
